Results taken from paper PMC7189608, “FaPAO5 regulates Spm/Spd levels as a signaling during strawberry fruit ripening” (Plant Direct, 2020).

Target: T1, FaPAO5
T1 construct: 105 kDa fusion protein
Test: isothermal titration calorimetry
Type: binding, Fragaria x ananassa
Conditions: pH 7.4, 30 °C, 200 mM NaCl, 20 mM Tris, 0.5 mM EDTA, 10 mM maltose; MBP fusion protein (10 µM in Methods, 20 µM in Results); ligand 100 µM
Excerpt: isothermal titration calorimetry on FaPAO5 | the binding of FaPAO5 to Spm and Spd followed a saturation kinetics curve

Kd | SMILES
210 nM | NCCCNCCCCNCCCN [Spm]
290 nM | NCCCCNCCCN [Spd]
